Data as given in US20130095194A1 (L'Air Liquide, Société Anonyme pour I'Etude et …, priority 2011, published 2013).

System: neuropathic pain caused by oxaliplatin in rats
Experiment: Randall-Selitto pain thresholds in rats given repeated intraperitoneal oxaliplatin (chemo-induced neuropathic pain model)
Description: A preclinical study in rats was carried out.
In order to mimic the clinical use as closely as possible, a series of 8 intraperitoneal injections of oxaliplatin were given every 3 to 4 days, as illustrated in FIG. 2. This model is well known in the literature and gives an account of chemo-induced neuropathic pain.
The pain thresholds were evaluated by means of a Randall-Selitto device by applying an increasing pressure to the paw of the rat until the animal lets out a cry. The corresponding weight in grams is then noted (the Y-axis in FIG. 2). Thus, the earlier the animal cries out, for a low weight, the more pain it has.

| SMILES | pain thresholds (Randall-Selitto, weight at which the animal cries out) (group B: oxaliplatin 2 mg/kg, 8 intraperitoneal injections every 3 to 4 days, with N2/O2 (50%-50%) control gas for 1 hour, control group A 200 g) | persistence of hypersensitivity to pain after the final administration of oxaliplatin (group B, final administration on D25, still present on D42) | hypersensitivity to pain (pain threshold curve versus control group A) (rats given oxaliplatin 2 mg/kg, gas/O2 (50%-50%) inhaled for 1 hour with each administration) |
| --- | --- | --- | --- |
| O=C1[O][Pt]2([NH][C@@H]3CCCC[C@H]3[NH]2)[O]C1=O [oxaliplatin] | approximately 150 g | more than 2 weeks | – |
| [Xe] [xenon] | – | – | no sign of hypersensitivity to pain |
